Assay results published in patent publication US5026848A, “Novel generation of heteroaryloxyalkyl heterocycles with antipicornaviruses activities” (Synphar Laboratories Incorporated, priority 1988, dated 1991).
Converted amounts (≈) assume the structure as drawn.

Key:
WI38 cells = test: Toxicity to WI38 cells (change in morphology in / growth inhibition of 25% of the cells); type: cell-based
Rhinovirus 1A = test: Anti-rhinovirus activity, cytopathic effect inhibition / neutral red dye uptake, type 1A; type: cell-based; settings: Enterovirus, WI-38; Table I; WI38 cells, 33° C., 3-4 days; NA = Not active; read-out: MIC50 Rhinovirus 1A
Rhinovirus 1B = test: Anti-rhinovirus activity, cytopathic effect inhibition / neutral red dye uptake, type 1B; type: cell-based; settings: Enterovirus, WI-38; Table II; one of seven commonest serotypes; read-out: MIC 50 Rhinovirus Type 1B
Rhinovirus 4 = test: Anti-rhinovirus activity, cytopathic effect inhibition / neutral red dye uptake, type 4; type: cell-based; settings: Enterovirus, WI-38; Table II; one of seven commonest serotypes; read-out: MIC 50 Rhinovirus Type 4
Rhinovirus 15 = test: Anti-rhinovirus activity, cytopathic effect inhibition / neutral red dye uptake, type 15; type: cell-based; settings: Enterovirus, WI-38; Table II; one of seven commonest serotypes; read-out: MIC 50 Rhinovirus Type 15
Rhinovirus 17 = test: Anti-rhinovirus activity, cytopathic effect inhibition / neutral red dye uptake, type 17; type: cell-based; settings: Enterovirus, WI-38; Table II; read-out: MIC 50 Rhinovirus Type 17
Rhinovirus 29 = test: Anti-rhinovirus activity, cytopathic effect inhibition / neutral red dye uptake, type 29; type: cell-based; settings: Enterovirus, WI-38; Table II; one of seven commonest serotypes; read-out: MIC 50 Rhinovirus Type 29
Rhinovirus 31 = test: Anti-rhinovirus activity, cytopathic effect inhibition / neutral red dye uptake, type 31; type: cell-based; settings: Enterovirus, WI-38; Table II; one of seven commonest serotypes; read-out: MIC 50 Rhinovirus Type 31
Rhinovirus 36 = test: Anti-rhinovirus activity, cytopathic effect inhibition / neutral red dye uptake, type 36; type: cell-based; settings: Enterovirus, WI-38; Table II; read-out: MIC 50 Rhinovirus Type 36
Rhinovirus 39 = test: Anti-rhinovirus activity, cytopathic effect inhibition / neutral red dye uptake, type 39; type: cell-based; settings: Enterovirus, WI-38; Table I; WI38 cells, 33° C., 3-4 days; read-out: MIC50 Rhinovirus 39
Rhinovirus 86 = test: Anti-rhinovirus activity, cytopathic effect inhibition / neutral red dye uptake, type 86; type: cell-based; settings: Enterovirus, WI-38; Table II; read-out: MIC 50 Rhinovirus Type 86
Polio 1 = test: microbe, parasite or virus in culture; type: cell-based; settings: Enterovirus, read-out: MIC 50 Polio 1
Coxsacki-A21 = test: Activity against other picornaviruses, Coxsacki-A21; type: cell-based; settings: Enterovirus, read-out: MIC 50 Cox. A21
Coxsacki-B1 = test: Activity against other picornaviruses, Coxsacki-B1; type: cell-based; settings: Enterovirus, read-out: MIC 50 Cox. B1
Echo-7 = test: Activity against other picornaviruses, Echo-7; type: cell-based; settings: Enterovirus, read-out: MIC 50 Echo 7
Echo-11 = test: Activity against other picornaviruses, Echo-11; type: cell-based; settings: Enterovirus, read-out: MIC 50 Echo 11
Enterovirus serotypes = type: cell-based; settings: for All Enterovirus Serotypes (number of serotypes active / tested): Table III, numerator, denominator 7, but 5 for compound 8
HRV-1A and HRV-39 = test: Anti-rhinovirus activity against HRV-1A and HRV-39; settings: in words
[1] = tested on: 20 serotypes of rhinovirus; test: Anti-rhinovirus activity against a panel of 20 serotypes; settings: Table II; numerator; denominator 20, but 10 for compound 8 and 6 for compound 30
Rhinovirus 2 = test: Anti-rhinovirus activity, cytopathic effect inhibition / neutral red dye uptake, type 2; type: cell-based; settings: Enterovirus, WI-38; Table II; one of seven commonest serotypes; read-out: MIC 50 Rhinovirus Type 2
Rhinovirus 23 = test: Anti-rhinovirus activity, cytopathic effect inhibition / neutral red dye uptake, type 23; type: cell-based; settings: Enterovirus, WI-38; Table II; read-out: MIC 50 Rhinovirus Type 23
Rhinovirus 30 = test: Anti-rhinovirus activity, cytopathic effect inhibition / neutral red dye uptake, type 30; type: cell-based; settings: Enterovirus, WI-38; Table II; read-out: MIC 50 Rhinovirus Type 30
Rhinovirus 32 = test: Anti-rhinovirus activity, cytopathic effect inhibition / neutral red dye uptake, type 32; type: cell-based; settings: Enterovirus, WI-38; Table II; read-out: MIC 50 Rhinovirus Type 32
Rhinovirus 44 = test: Anti-rhinovirus activity, cytopathic effect inhibition / neutral red dye uptake, type 44; type: cell-based; settings: Enterovirus, WI-38; Table II; read-out: MIC 50 Rhinovirus Type 44
Rhinovirus 49 = test: Anti-rhinovirus activity, cytopathic effect inhibition / neutral red dye uptake, type 49; type: cell-based; settings: Enterovirus, WI-38; Table II; read-out: MIC 50 Rhinovirus Type 49
Rhinovirus 53 = test: Anti-rhinovirus activity, cytopathic effect inhibition / neutral red dye uptake, type 53; type: cell-based; settings: Enterovirus, WI-38; Table II; read-out: MIC 50 Rhinovirus Type 53
Rhinovirus 56 = test: Anti-rhinovirus activity, cytopathic effect inhibition / neutral red dye uptake, type 56; type: cell-based; settings: Enterovirus, WI-38; Table II; read-out: MIC 50 Rhinovirus Type 56
Rhinovirus 63 = test: Anti-rhinovirus activity, cytopathic effect inhibition / neutral red dye uptake, type 63; type: cell-based; settings: Enterovirus, WI-38; Table II; read-out: MIC 50 Rhinovirus Type 63
Rhinovirus 88 = test: Anti-rhinovirus activity, cytopathic effect inhibition / neutral red dye uptake, type 88; type: cell-based; settings: Enterovirus, WI-38; Table II; read-out: MIC 50 Rhinovirus Type 88
Coxsacki-A9 = test: Activity against other picornaviruses, Coxsacki-A9; type: cell-based; settings: Enterovirus, read-out: MIC 50 Cox. A9
Coxsacki-B4 = test: Activity against other picornaviruses, Coxsacki-B4; type: cell-based; settings: Enterovirus, read-out: MIC 50 Cox. B4
[2] = Table I, concentration with change in morphology in 25% of WI38 cells

| Structure (SMILES) | Toxicity (WI38 cells; [2]) | Toxicity (WI38 cells; Table II) | Toxicity (WI38 cells; Table III) | EC50 (Rhinovirus 1A) | IC50 (Rhinovirus 1B) | IC50 (Rhinovirus 4) | IC50 (Rhinovirus 15) | IC50 (Rhinovirus 17) | IC50 (Rhinovirus 29) | EC50 (Rhinovirus 31) | EC50 (Rhinovirus 36) | EC50 (Rhinovirus 39) | EC50 (Rhinovirus 86) | EC50 (Polio 1) | IC50 (Coxsacki-A21) | IC50 (Coxsacki-B1) | IC50 (Echo-7) | IC50 (Echo-11) | inhibitory activity against HRV-1A and HRV-39 in vitro (HRV-1A and HRV-39) | All Rhinovirus Serotypes (number of serotypes active / tested) [1] | other results |
| --- | --- | --- | --- | --- | --- | --- | --- | --- | --- | --- | --- | --- | --- | --- | --- | --- | --- | --- | --- | --- | --- |
| Cc1cc(CCCCCCCOc2ccc3c(c2)[nH]c2ccccc23)on1 [Compound 8, 5-[7-(carbazol-2-yl)oxyheptyl]-3-methylisoxazole] | 25 µg/mL | 25 µg/mL | 25 µg/mL | 10 µg/mL (≈ 27.6 µM) | 5 µg/mL (≈ 13.8 µM) | > 25 µg/mL | > 25 µg/mL | > 25 µg/mL | > 25 µg/mL | 1 µg/mL (≈ 2.76 µM) | > 25 µg/mL | 10 µg/mL (≈ 27.6 µM) | > 25 µg/mL | > 25 µg/mL | > 25 µg/mL | > 25 µg/mL | > 25 µg/mL | > 25 µg/mL | remarkably inhibitory activity | 4 | All Enterovirus Serotypes (number of serotypes active / tested) (Enterovirus serotypes): 0 |
| Cc1cc(CCCCCCCOc2ccc3ccccc3c2)on1 [Compound 13, 5-[7-(2-naphthyl)oxyheptyl]-3-methylisoxazole] | 50 µg/mL | – | – | 25 µg/mL (≈ 77.3 µM) | – | – | – | – | – | – | – | 10 µg/mL (≈ 30.9 µM) | – | – | – | – | – | – | remarkably inhibitory activity | – | – |
| Cc1cc(CCCCCCCOc2cccc3ccccc23)on1 [Compound 14, 5-[7-(1-naphthyl)oxyheptyl]-3-methylisoxazole] | > 50 µg/mL | – | – | 25 µg/mL (≈ 77.3 µM) | – | – | – | – | – | – | – | 25 µg/mL (≈ 77.3 µM) | – | – | – | – | – | – | remarkably inhibitory activity | – | – |
| Cc1csc(CCCCCCCOc2ccc3oc4ccccc4c3c2)n1 [Compound 15] | 50 µg/mL | 50 µg/mL | 50 µg/mL | 10 µg/mL (≈ 26.3 µM) | 5 µg/mL (≈ 13.2 µM) | 1 µg/mL (≈ 2.63 µM) | 5 µg/mL (≈ 13.2 µM) | 5 µg/mL (≈ 13.2 µM) | 5 µg/mL (≈ 13.2 µM) | 1 µg/mL (≈ 2.63 µM) | > 25 µg/mL | 5 µg/mL (≈ 13.2 µM) | < 0.5 µg/mL | 5 µg/mL (≈ 13.2 µM) | 5 µg/mL (≈ 13.2 µM) | 25 µg/mL (≈ 65.9 µM) | 10 µg/mL (≈ 26.3 µM) | > 25 µg/mL | – | 14 | IC50 (Rhinovirus 2): > 25 µg/mL; IC50 (Rhinovirus 23): 10 µg/mL (≈ 26.3 µM); IC50 (Rhinovirus 30): 5 µg/mL (≈ 13.2 µM); EC50 (Rhinovirus 32): > 25 µg/mL; EC50 (Rhinovirus 44): 1 µg/mL (≈ 2.63 µM); EC50 (Rhinovirus 49): > 25 µg/mL; EC50 (Rhinovirus 53): > 25 µg/mL; EC50 (Rhinovirus 56): 5 µg/mL (≈ 13.2 µM); EC50 (Rhinovirus 63): > 25 µg/mL; EC50 (Rhinovirus 88): < 0.5 µg/mL; EC50 (Coxsacki-A9): 1 µg/mL (≈ 2.63 µM); IC50 (Coxsacki-B4): 10 µg/mL (≈ 26.3 µM); inhibitory activity against the members of the Entero virus family (Enterovirus serotypes): remarkable inhibitory activity; All Enterovirus Serotypes (number of serotypes active / tested) (Enterovirus serotypes): 6 |
| Cc1csc(CCCCCCOc2ccc3oc4ccccc4c3c2)n1 [Compound 27] | 50 µg/mL | 50 µg/mL | 50 µg/mL | 10 µg/mL (≈ 27.4 µM) | 5 µg/mL (≈ 13.7 µM) | 25 µg/mL (≈ 68.4 µM) | 10 µg/mL (≈ 27.4 µM) | 10 µg/mL (≈ 27.4 µM) | 25 µg/mL (≈ 68.4 µM) | 10 µg/mL (≈ 27.4 µM) | > 25 µg/mL | 10 µg/mL (≈ 27.4 µM) | 1 µg/mL (≈ 2.74 µM) | > 25 µg/mL | 10 µg/mL (≈ 27.4 µM) | 10 µg/mL (≈ 27.4 µM) | > 25 µg/mL | > 25 µg/mL | – | 17 | IC50 (Rhinovirus 2): > 25 µg/mL; IC50 (Rhinovirus 23): 5 µg/mL (≈ 13.7 µM); IC50 (Rhinovirus 30): 10 µg/mL (≈ 27.4 µM); EC50 (Rhinovirus 32): 10 µg/mL (≈ 27.4 µM); EC50 (Rhinovirus 44): 10 µg/mL (≈ 27.4 µM); EC50 (Rhinovirus 49): > 25 µg/mL; EC50 (Rhinovirus 53): 10 µg/mL (≈ 27.4 µM); EC50 (Rhinovirus 56): 5 µg/mL (≈ 13.7 µM); EC50 (Rhinovirus 63): 25 µg/mL (≈ 68.4 µM); EC50 (Rhinovirus 88): > 25 µg/mL; EC50 (Coxsacki-A9): 5 µg/mL (≈ 13.7 µM); IC50 (Coxsacki-B4): > 25 µg/mL; inhibitory activity against the members of the Entero virus family (Enterovirus serotypes): remarkable inhibitory activity; All Enterovirus Serotypes (number of serotypes active / tested) (Enterovirus serotypes): 3 |
| c1ccc(-n2nccc2CCCCCCOc2ccc3oc4ccccc4c3c2)cc1 [Compound 30] | > 50 µg/mL | > 50 µg/mL | – | 10 µg/mL (≈ 24.4 µM) | 10 µg/mL (≈ 24.4 µM) | 10 µg/mL (≈ 24.4 µM) | 5 µg/mL (≈ 12.2 µM) | – | – | > 25 µg/mL | – | 5 µg/mL (≈ 12.2 µM) | – | – | – | – | – | – | remarkably inhibitory activity | 5 | – |
| Cc1cc(OCCCCCCc2ccnn2-c2ccccc2)c2ccccc2n1 [Compound 31, 5-[6-(2-methylquinolin-4-yl)oxyhexyl]-1-phenylpyrazole] | 25 µg/mL | – | – | 10 µg/mL (≈ 25.9 µM) | – | – | – | – | – | – | – | 10 µg/mL (≈ 25.9 µM) | – | – | – | – | – | – | remarkably inhibitory activity | – | – |
| c1ccc(-n2nccc2CCCCCCOc2ccc3ccccc3c2)cc1 [Compound 32, 5-[6-(2-naphthyl)-oxyhexyl]-1-phenylpyrazole] | 50 µg/mL | – | – | 25 µg/mL (≈ 67.5 µM) | – | – | – | – | – | – | – | 25 µg/mL (≈ 67.5 µM) | – | – | – | – | – | – | remarkably inhibitory activity | – | – |
